Values quoted from earlier work in publication PMC3349014 (Journal of the American Chemical Society, 2012).

Details: over 3 h

Row | Rat plasma levels after IV injection | Substance
1 | drop to low percent over 3 h | Ac-Im-Py-Py-γ-Im-Py-Py-β-Dp [compound 1035]
2 | drop to low percent over 3 h | Ac-Py-Py-β-Py-Im-Py-γ-Py-Py-Py-β-Im-Py-β-Dp [compound 1666]
